Counter-ions that a name gives are not always drawn.
Tests used:
Type in all cases: biochemical
Serotonin (5-HT) uptake = biological target: T1, Serotonin (5-HT) uptake (Rattus norvegicus, UniProt P31652); assay: Serotonin (5-HT) uptake inhibitory activity using rat brain synaptosome (frontal cortex); settings: tritium-labeled 5-HT 8 nM, 37° C. 10 minutes, read-out: 50% Inhibitory concentration
T1 construct: The suspension was used as a crude synaptosome fraction; from tissue; host or cells: rat (male Wistar) frontal cortex, crude synaptosome fraction
T1 sequence (P31652 whole entry): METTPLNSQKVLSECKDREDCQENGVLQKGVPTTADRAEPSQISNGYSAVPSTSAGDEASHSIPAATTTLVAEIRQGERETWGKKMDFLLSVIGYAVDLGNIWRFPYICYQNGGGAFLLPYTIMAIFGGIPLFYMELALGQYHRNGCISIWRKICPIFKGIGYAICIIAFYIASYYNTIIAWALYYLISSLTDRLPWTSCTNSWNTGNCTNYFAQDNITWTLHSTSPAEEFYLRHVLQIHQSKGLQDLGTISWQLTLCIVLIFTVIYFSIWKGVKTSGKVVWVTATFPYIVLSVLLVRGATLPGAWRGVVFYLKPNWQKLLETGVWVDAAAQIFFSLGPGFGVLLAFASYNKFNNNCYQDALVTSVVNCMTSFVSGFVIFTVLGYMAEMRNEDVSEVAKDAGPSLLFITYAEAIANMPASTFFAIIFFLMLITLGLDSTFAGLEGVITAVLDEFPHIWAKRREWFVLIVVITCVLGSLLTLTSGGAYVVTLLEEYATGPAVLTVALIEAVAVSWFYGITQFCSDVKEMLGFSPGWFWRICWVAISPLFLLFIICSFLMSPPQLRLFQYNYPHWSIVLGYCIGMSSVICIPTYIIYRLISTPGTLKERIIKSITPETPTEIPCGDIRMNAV
Description: Measurement of Serotonin (5-HT) Uptake Inhibitory Activity of Test Compound Using Rat Brain Synaptosome
(§1) Male Wistar rats were decapitated, and their brains were removed and dissected to remove the frontal cortex. The separated frontal cortex was placed in a 20-fold weight of a 0.32 molarity (M) sucrose solution and homogenized with a potter homogenizer. The homogenate was centrifuged at 1000 g at 4° C. for 10 minutes, and the supernatant was further centrifuged at 20000 g at 4° C. for 20 minutes. […] The suspension was used as a crude synaptosome fraction.
(§2) Uptake reaction was performed using each well of a 96-well round-bottom plate and a 200 μl volume in total of a solution containing pargyline (final concentration: 10 μM) and ascorbic acid (final concentration: 0.2 mg/ml).
(§3) Specifically, a solvent, unlabeled 5-HT, and serially diluted test compounds were separately added to the wells, and the synaptosome fraction was added in an amount 1/10 of the final volume to each well and preincubated at 37° C. for 10 minutes. Then, a tritium-labeled 5-HT solution (final concentration: 8 nM) was added thereto to initiate uptake reaction at 37° C. 10 minutes later, the uptake reaction was terminated by suction filtration through a 96-well glass fiber filter plate. Furthermore, the filter was washed with a cold saline and then sufficiently dried. MicroScint-O (PerkinElmer Co., Ltd.) was added thereto, and the residual radioactivity on the filter was measured.
(§4) An uptake value obtained by the addition of only the solvent was defined as 100%, and an uptake value (nonspecific uptake value) obtained by the addition of the unlabeled 5-HT (final concentration: 10 μM) was defined as 0%. A 50%, inhibitory concentration was calculated from the test compound concentrations and inhibitory activities thereat.

[1] = biological target: Norepinephrine (NE) uptake (Rattus norvegicus, UniProt Q9WTR4); assay: Norepinephrine (NE) uptake inhibitory activity using rat brain synaptosome (hippocampus); settings: tritium-labeled NE 12 nM, 37° C. ten minutes, read-out: 50% inhibitory concentration
Description: Measurement of Norepinephrine (NE) Uptake Inhibitory Activity of Test Compound Using Rat Brain Synaptosome
Male Wistar rats were decapitated, and their brains were removed and dissected to remove the hippocampus. The separated hippocampus was placed in a 20-fold weight of a 0.32 molarity (M) sucrose solution and homogenized with a potter homogenizer. The homogenate was centrifuged at 1000 g at 4° C. for 10 minutes, and the supernatant was further centrifuged at 20000 g at 4° C. for 20 minutes. The pellet was suspended in an incubation buffer (20 mM HEPES buffer (pH 7.4) containing 10 mM glucose, 145 mM sodium chloride, 4.5 mM potassium chloride, 1.2 mM magnesium chloride, and 1.5 mM calcium chloride). The suspension was used as a crude synaptosome fraction.
as §2
as §3, with “unlabeled NE,” for “unlabeled 5-HT,”, “tritium-labeled NE” for “tritium-labeled 5-HT”, “concentration: 12” for “concentration: 8”, “C. Ten” for “C. 10”
as §4, with “NE” for “5-HT”, “50%” for “50%,”

Dopamine (DA) uptake = biological target: T2, Dopamine (DA) uptake (Rattus norvegicus, UniProt P23977); assay: Dopamine (DA) uptake inhibitory activity using rat brain synaptosome (corpus striatum); settings: tritium-labeled DA 2 nM, 37° C. ten minutes, read-out: 50% Inhibitory concentration
T2 construct: The suspension was used as a crude synaptosome fraction; from tissue; host or cells: rat (male Wistar) corpus striatum, crude synaptosome fraction
T2 sequence (P23977 whole entry): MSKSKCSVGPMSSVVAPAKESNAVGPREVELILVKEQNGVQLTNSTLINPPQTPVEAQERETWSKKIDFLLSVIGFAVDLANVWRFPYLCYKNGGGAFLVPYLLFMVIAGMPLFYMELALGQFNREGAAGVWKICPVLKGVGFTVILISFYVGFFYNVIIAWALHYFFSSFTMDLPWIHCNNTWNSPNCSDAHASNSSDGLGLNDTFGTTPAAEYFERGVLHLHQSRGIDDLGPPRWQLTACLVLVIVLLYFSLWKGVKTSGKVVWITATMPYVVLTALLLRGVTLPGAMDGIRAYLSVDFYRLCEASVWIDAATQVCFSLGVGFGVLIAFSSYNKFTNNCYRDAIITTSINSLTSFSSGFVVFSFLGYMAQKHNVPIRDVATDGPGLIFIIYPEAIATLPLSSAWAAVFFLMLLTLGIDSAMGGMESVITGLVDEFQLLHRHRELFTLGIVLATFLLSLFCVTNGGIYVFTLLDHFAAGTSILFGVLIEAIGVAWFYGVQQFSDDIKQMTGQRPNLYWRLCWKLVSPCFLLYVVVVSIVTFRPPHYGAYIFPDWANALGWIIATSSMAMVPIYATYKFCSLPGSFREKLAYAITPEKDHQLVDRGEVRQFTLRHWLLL
Description: Measurement of Dopamine (DA) Uptake Inhibitory Activity of Test Compound Using Rat Brain Synaptosome
as §1, with “corpus striatum.” for “frontal cortex.”, “corpus striatum” for “frontal cortex”
Uptake reaction was performed using each well of a 96-well round-bottom plate and a 200 μl volume in total of a solution containing pargyline (final concentration: 10 μM) and ascorbic acid (final concentration: 0.2 mg/mil).
as §3, with “unlabeled DA,” for “unlabeled 5-HT,”, “tritium-labeled DA” for “tritium-labeled 5-HT”, “concentration: 2” for “concentration: 8”, “C. Ten” for “C. 10”
as §4, with “DA” for “5-HT”, “50%” for “50%,”

| IC50 (Serotonin (5-HT) uptake) [nM] | IC50 [1] [nM] | IC50 (Dopamine (DA) uptake) [nM] | Compound |
| --- | --- | --- | --- |
| 2.5 | 5.4 | 202 | CC1(C)CN(c2cc(F)c(F)c3occc23)[C@@H]2CCCC[C@@H]2N1 [Example 580, (4aS,8aR)-1-(6,7-difluorobenzofuran-4-yl)-3,3-dimethyldecahydroquinoxaline hydrochloride] |
| 6 | 0.8 | 7.9 | CC1(C)CN(c2ccc3ccsc3c2)[C@H]2CCCC[C@@H]2N1 [Example 188] |
| 8.5 | 0.8 | 9.1 | CC1(C)CN(c2cccc3sccc23)[C@H]2CCCC[C@H]2N1 [Example 124] |
| 89.1 | 9.9 | 81.3 | OCCN1CCN(c2ccc(Cl)c(Cl)c2)[C@H]2CCCC[C@@H]21 (relative stereo) [Example 300] |
| 6.5 | 47.6 | 173 | CC1(C)CN(c2ccc(OC(F)F)c3occc23)[C@@H]2CCCC[C@H]2N1 [Example 983] |
| 4.7 | 1.9 | 5.2 | CN1[C@@H]2CCCC[C@@H]2N(c2cccc3sccc23)CC1(C)C [Example 125] |
| 5.8 | 6 | 12.1 | CN1[C@H]2CCCC[C@@H]2N(c2ccc3sccc3c2)CC1(C)C [Example 187] |
| 44 | 6.8 | 8.7 | CN1[C@@H]2CCCC[C@H]2N(c2ccc(Cl)c(Cl)c2)CC1(C)C [Example 273] |
| 9.6 | 40.1 | 67.7 | CC1(C)CCN(c2ccc(Cl)c(Cl)c2)[C@@H]2CCCC[C@@H]2N1 (relative stereo) [Example 322] |
| 6.4 | 4.4 | 74.8 | CC1(C)CN(c2ccc3ncsc3c2)[C@H]2CCCC[C@@H]2N1 (racemic) [Example 405] |
| 7.3 | 4.8 | 52.8 | CC1(C)CN(c2cc(Cl)c3occc3c2)[C@H]2CCCC[C@@H]2N1 [Example 884] |
| 6.8 | 42.7 | 113 | C[C@@H]1CN(c2ccc3ccc(C#N)cc3c2)[C@H]2CCCC[C@@H]2N1 [Example 1341] |
| 5.1 | 14.3 | 85.4 | CC1(C)CN(c2ccc3sccc3c2)[C@H]2CCC[C@@H]2N1 (relative stereo) [Example 13] |
| 19.3 | 40.4 | 68.2 | c1cc2cc(N3CC4(CCCC4)N[C@H]4CCCC[C@@H]43)ccc2s1 (relative stereo) [Example 307] |
| 4.8 | 8.7 | 38.6 | CC1(C)CN(c2ccc3[nH]c(C#N)cc3c2)[C@@H]2CCCC[C@H]2N1 [Example 993] |
| 2.2 | 76 | 9.7 | CC1(C)CN(c2ccc3cc(C#N)oc3c2)[C@@H]2CCCC[C@@H]2N1 [Example 641] |
| 18.7 | 31.9 | 69.5 | COc1cc2ccc(N3CC(C)(C)N[C@@H]4CCCC[C@H]43)cc2cc1C#N [Example 962] |
| 6.1 | 0.7 | 8.3 | CC1(C)CN(c2cccc3occc23)[C@H]2CCCC[C@H]2N1 [Example 131] |
| 6.2 | 3 | 5.2 | CC1(C)CN(c2ccc3[nH]c(C#N)cc3c2)[C@H]2CCCC[C@H]2N1 [Example 781] |
| 6.8 | 7.5 | 9.8 | CC1(C)CN(c2ccc3sccc3c2)[C@@H]2CCCCC[C@@H]2N1 (racemic) [Example 344] |
| 6.8 | 3.8 | 8.8 | CC1(C)CN(c2ccc(Cl)c(Cl)c2)[C@H]2CCCC[C@@H]2N1 [Example 246] |
| 56.1 | 22 | 74.7 | CC[C@@H]1CN(c2ccc3ccccc3c2)[C@H]2CCCC[C@@H]2N1C (relative stereo) [Example 288] |
| 0.7 | 0.7 | 1.1 | c1cc(N2CC3(CCC3)N[C@H]3CCCC[C@@H]32)c2ccoc2c1 [Example 1047] |
| 42.8 | 6.6 | 8.7 | CN1[C@H]2CCCC[C@@H]2N(c2ccc(Cl)c(Cl)c2)CC1(C)C [Example 247] |
| 3.2 | 2.1 | 13.5 | CC1(C)CN(c2cccc3occc23)[C@H]2CCCC[C@@H]2N1 [Example 191] |
| 7.1 | 87.3 | 264 | CC1(C)CN(c2ccc(F)c(Cl)c2)[C@@H]2CCCC[C@@H]2N1 [Example 112, (4aS,8aR)-1-(3-chloro-4-fluorophenyl)-3,3-dimethyldecahydroquinoxaline hydrochloride] |
| 5.2 | 5.9 | 47.9 | CC1(C)CN(c2csc3ccccc23)[C@@H]2CCCC[C@@H]2N1 [Example 577] |
| 5.1 | 2.5 | 53.7 | Clc1ccc(N2CCN[C@H]3CCCC[C@@H]32)c2ccoc12 [Example 1083] |
| 84.2 | 39.6 | 73 | Cc1noc(-c2ccc(N3C[C@@H](C)N[C@H]4CCCC[C@@H]43)cc2)n1 [Example 1333] |
| 12.5 | 11 | 68.4 | CC1(C)CN(c2ccc(Cl)c(Cl)c2)[C@H]2CCC[C@@H]2N1 (racemic) [Example 15] |

| Compound | IC50 (Serotonin (5-HT) uptake) [nM] | IC50 [1] [nM] | IC50 (Dopamine (DA) uptake) [nM] |
| --- | --- | --- | --- |
| CC1(C)CN(c2ccc(Cl)c3occc23)[C@H]2CCCC[C@@H]2N1 [Example 193] | 3.4 | 4.4 | 5.7 |
| CC1(C)CN(c2ccc(OC(F)F)c(Cl)c2)[C@@H]2CCCC[C@H]2N1 [Example 1026] | 2.4 | 4.2 | 12.3 |
| CC1(C)CN(c2ccc(Cl)c(Cl)c2)[C@@H]2CCCCC[C@@H]2N1 (relative stereo) [Example 346] | 10 | 8.8 | 7.8 |
| CC1(C)CN(c2ccc(F)c3occc23)[C@H]2CCCC[C@@H]2N1 [Example 192] | 2.9 | 3.6 | 8.6 |
| CC1(C)CN(c2ccc(F)c3occc23)[C@@H]2CCCC[C@@H]2N1 [Example 77, (4aS,8aR)-1-(7-fluorobenzofuran-4-yl)-3,3-dimethyldecahydroquinoxaline] | 0.8 | 3.9 | 41.2 |
| CC1(C)CN(c2ccc3sccc3c2)[C@H]2CCCC[C@@H]2N1 [Example 186] | 5.2 | 3.8 | 29.8 |

— US11273168B2, “Methods of treating anxiety by administering a substituted quinolone” (OTSUKA PHARMACEUTICAL CO., LTD., priority 2010, dated 2022)
